# Values joined by “and” are separate entries in the source; they are usually repeats but may differ in a detail not shown here. Identical values can stand only once. Like-named read-outs stand apart in the source and are kept apart here.
# Tests used:
# [1] = test system: DBA-2 mice; experiment: Glomerular filtration rate (GFR) by [14C]inulin clearance after bolus drug; assay type: in vivo
# Experimental: (§1) British Journal of Cancer (1998) 78(11), 1457-1463 ? […] In contrast to Tomudex (ZD1694), ZD9331 may therefore be active against tumours with low FPGS activity. […] In view of the history of renal toxicity with some earlier TS inhibitors and the possible therapeutic use of bolus ZD9331, we have examined the effects of bolus ZD9331 dose and route of administration on plasma and kidney pharmacokinetics and renal function in mice. Renal function was assessed by measuring [14C]inulin clearance, and drug concentrations were assayed by reverse-phase high-performance liquid chromatography (HPLC). […] Kidney drug concentrations were slightly elevated in iv.- versus i.p.-treated animals at the low dose (50 mg kg-'), with a correspondingly larger area under the curve. However, at the highest dose (200 mg kg-'), peak kidney drug concentrations were 20-fold higher following i.v. administration than after i.p., with marked kidney retention, resulting in a 50-fold greater kidney drug exposure for the i.v. versus the i.p. route. […] These adverse effects can be readily overcome by i.p. administration, indicating the likely need for short infusions in clinical settings. […] Early studies established that nephrotoxicity may be a result of poor aqueous solubility of 2-amino compounds such as CB3717, and it was shown that 2-desamino CB3717 was more water soluble and less nephrotoxic (Jones et al, 1989; 1996). […] These polyglutamate forms also exibit intra- cellular retention, which may contribute to toxicity as well as anti- tumour activity. […] Such compounds might be expected to show activity in a different spectrum of tumours from ZD1694 and to have a more manageable toxicity profile because of the lack of retained cyto- toxic metabolites. […] MATERIALS AND METHODS Drug administration and animals The compound ZD933 1 (Figure 1) was provided as a white crystalline salt. ['4C]inulin was provided as a carboxylic acid (Amersham, UK, 250 µCi in 5 ml, specific activity 6.6 mCi mmol-') and diluted to an activity of 5 µCi ml-' in phosphate-buffered saline (PBS). ZD9331 was dissolved in 0.05 M sodium bicarbonate, 1457 1458 Ml Walton et al ~~ N Ny~~~14COOHH 0 H IN H N CH ~~~~H , 4 H3C N3 H Figure 1 The chemical structure of ZD9331 adjusted to pH 9.0 and administered either i.v. via the tail vein or i.p. at 0.01 ml g-' mouse body weight. [14C]inulin was administered at 0.05 gCi g-' (i.e. 0.01 ml g-') i.v. via the tail vein. Adult female DBA-2 mice were obtained from OLAC (Bicester, UK) and used at 8-12 weeks of age at a body weight of 15-25 g. Mice were housed in cages containing untreated sawdust and allowed access to food and water ad libitum. Sample preparation Plasma and tissue samples were prepared using standard tech- niques (Walton et al, 1996). Briefly, whole blood was obtained by cardiac puncture into heparinized syringes from halothane- anaesthetized mice. Plasma was prepared by centrifugation at 12 000 r.p.m. x 2 min in a bench-top microcentrifuge. Kidney and liver tissues were rapidly removed, washed and snap frozen on dry ice. Frozen plasma and tissues were stored at -20?C for up to 4 weeks prior to analysis. Individual samples were thawed on ice and handled rapidly. ZD9331 was extracted from whole plasma or tissue homogenates (33% w/v in 0.1 M Tris, pH 10.0) by the addition of an equal volume of acetonitrile, mixing and centrifugation and the super- natant removed for injection into the HPLC system. Samples were diluted with Tris buffer (0.1 M, pH 10.0) on to the linear part of the calibration curve prior to HPLC analysis. Extraction efficiencies were >95%. HPLC analysis Concentrations of ZD9331 were measured in biological samples using reversed phase HPLC on equipment supplied by Kontron (Watford, UK). Separations were carried out using stainless-steel columns heated at 45?C and packed with C18 Supelcosil ODS (10 cm x 4.6 mm, 5 µm bead size, Sigma, Dorset) and protected with NewGuard C18 columns (Anachem, Luton, UK). […]
# [2] = Plasma pharmacokinetics of ZD9331 (HPLC, non-compartmental); assay type: in vivo, mice; conditions: for AUC(0-t): read-out: AUC0-8h; for concentration at 4 h: read-out: plasma drug concentration at 4 h; for Cmax / Tmax: mouse
# Experimental: as §1
# [3] = Kidney drug distribution and kidney-plasma ratios (HPLC); assay type: in vivo, mice; conditions: for Cmax / Tmax / AUC(0-t): mouse, DBA-2 mice; for AUC(0-t): read-out: AUC0-8h
# Experimental: as §1
# [4] = Peak plasma concentration in phase I, 30 min infusion; assay type: in vivo; conditions: after 30 min infusion
# [5] = female, ip, plasma, DBA-2 mice, 50 mg kg-1 i.p.
# [6] = female, ip, plasma, DBA-2 mice, 200 mg kg-1 i.p.
# [7] = female, iv, plasma, DBA-2 mice, 50 mg kg-1 i.v. bolus
# [8] = female, iv, plasma, DBA-2 mice, 100 mg kg-1 i.v. bolus
# [9] = female, iv, plasma, DBA-2 mice, 200 mg kg-1 i.v. bolus
# [10] = female, ip, kidney, 50 mg kg-1 i.p.
# [11] = female, ip, kidney, 200 mg kg-1 i.p.
# [12] = female, iv, kidney, 50 mg kg-1 i.v.
# [13] = female, iv, kidney, 200 mg kg-1 i.v.
compound,measurement,setting,value
"C#CCN(Cc1cc2c(=O)[nH]c(C)nc2cc1C)c1ccc(C(=O)N[C@@H](CCc2nnn[nH]2)C(=O)O)c(F)c1 [ZD9331, (2S)-2-{O-fluoro-p-(N-(2,7-dimethyl-4-oxo-3,4-dihydroquinazolin-6-ylmethyl)-N-(prop-2-ynyl)amino}benzamido}-4-(tetrazol-5-yl)butyric acid]",effect on renal function (GFR),"[1]; 50 mg kg-1, 4 h after administration",minimal effects on renal function
same,effect on GFR,"[1]; 150 mg kg-1 i.p., 24 h after administration",no effect
same,effect on GFR,"[1]; 150 mg kg-1 i.v., 4 h after administration",slight decrease in GFR
same,effect on GFR,"[1]; 150 mg kg-1 i.v., 24 h after administration",no effect
same,effect on GFR,[1]; 200 mg kg-1 i.p.,minimal
same,effect on GFR,"[1]; 200 mg kg-1 i.v., 4 h after administration",profound decrease in GFR
same,effect on GFR,"[1]; 200 mg kg-1 i.v., 24 h after administration",GFR inhibition was less profound
same,nephrotoxicity,"[1]; active anti-tumour dose, 50 mg kg-1 i.p., mice",non-nephrotoxic
same,effect on renal function (GFR),"[1]; doses up to 150 mg kg-1 i.v. or i.p., 4 or 24 h post treatment",no evidence of compromised renal function
same,peak plasma concentration i.p. as % of i.v.,[2]; 50 mg kg-1,11%
same,peak plasma concentration i.p. as % of i.v.,[2]; 200 mg kg-1,25%
same,AUC(0-t),"[2]; female, DBA-2, mouse, plasma, ip, 50 mg/kg, plasma, DBA-2 mice, 50 mg kg-1 i.p.",90.1 µM·h
same,half-life,"[2]; female, DBA-2, mouse, plasma, ip, 50 mg/kg, plasma, DBA-2 mice, 50 mg kg-1 i.p., read-out: t1/2",93.4 min
same,AUC(0-t),"[2]; female, DBA-2, mouse, plasma, ip, 200 mg/kg, plasma, DBA-2 mice, 200 mg kg-1 i.p.",315 µM·h
same,half-life,"[2]; female, DBA-2, mouse, plasma, ip, 200 mg/kg, plasma, DBA-2 mice, 200 mg kg-1 i.p., read-out: t1/2",99 min
same,bioavailability,"[2]; female, DBA-2, mouse, plasma, ip, 50 mg kg-1, read-out: i.p. bioavailability",80%
same,concentration at 4 h,"[2]; female, DBA-2, mouse, plasma, ip, 50 mg kg-1 i.p.",1000 nM
same,concentration at 4 h,"[2]; female, DBA-2, mouse, plasma, ip, 200 mg kg-1 i.p.",1860 nM
same,AUC(0-t),"[2]; female, DBA-2, mouse, plasma, iv, 50 mg/kg, plasma, DBA-2 mice, 50 mg kg-1 i.v. bolus",75.3 µM·h
same,half-life,"[2]; female, DBA-2, mouse, plasma, iv, 50 mg/kg, plasma, DBA-2 mice, 50 mg kg-1 i.v. bolus, read-out: t1/2 (apparent terminal elimination)",57 min
same,AUC(0-t),"[2]; female, DBA-2, mouse, plasma, iv, 100 mg/kg, plasma, DBA-2 mice, 100 mg kg-1 i.v. bolus",109 µM·h
same,half-life,"[2]; female, DBA-2, mouse, plasma, iv, 100 mg/kg, plasma, DBA-2 mice, 100 mg kg-1 i.v. bolus, read-out: t1/2",91.7 min
same,AUC(0-t),"[2]; female, DBA-2, mouse, plasma, iv, 200 mg/kg, plasma, DBA-2 mice, 200 mg kg-1 i.v. bolus",332 µM·h
same,half-life,"[2]; female, DBA-2, mouse, plasma, iv, 200 mg/kg, plasma, DBA-2 mice, 200 mg kg-1 i.v. bolus, read-out: t1/2",64.5 min
same,concentration at 4 h,"[2]; female, DBA-2, mouse, plasma, iv, 50 mg kg-1 i.v.",1100 nM
same,concentration at 2 min,"[2]; female, DBA-2, mouse, plasma, iv, 100 mg kg-1 i.v., read-out: plasma drug concentration at 2 min",898000 nM
same,concentration at 5 min,"[2]; female, DBA-2, mouse, plasma, iv, 100 mg kg-1 i.v., read-out: plasma drug concentration at 5 min",771000 nM
same,concentration at 4 h,"[2]; female, DBA-2, mouse, plasma, iv, 200 mg kg-1 i.v.",1300 nM
same,Cmax,[2]; [5],74100 ng/mL and 139 µM
same,Tmax,[2]; [5],10 min
same,Cmax,[2]; [6],483000 ng/mL and 906 µM
same,Tmax,[2]; [6],10 min
same,Cmax,[2]; [7],696000 ng/mL and 1.31 mM
same,Tmax,[2]; [7],1 min
same,Cmax,[2]; [8],708000 ng/mL and 1.32 mM
same,Tmax,[2]; [8],1 min
same,Cmax,[2]; [9],1.9e+06 ng/mL and 3.63 mM
same,Tmax,[2]; [9],1 min
same,relation of plasma drug exposure (AUC) to dose,"[2]; i.p., range 0-200 mg kg-1",linearly related to dose
same,relation of plasma drug exposure (AUC) to dose,"[2]; i.v., up to 200 mg kg-1",marked deviation from linearity at the highest dose
same,peak plasma concentration,"[2]; plasma, 50 mg kg-1 i.v.",1.3 mM
same,i.p. AUC0-8h as % of i.v.,"[2]; plasma, 200 mg kg-1",63%
same,t1/2 (apparent terminal elimination),"[2]; plasma, DBA-2 mice, 50 mg kg-1 i.v. bolus",57.7 min
same,"peak kidney drug level i.p., % lower than i.v.",[3]; 50 mg kg-1,80%
same,kidney AUC0-8h i.p. as % of i.v. route,[3]; 200 mg kg-1,1.8%
same,kidney drug exposure i.v. versus i.p.,[3]; 200 mg kg-1,50 fold
same,peak kidney drug concentration i.v. versus i.p.,[3]; 200 mg kg-1,20 fold
same,peak kidney drug level i.p. as % of i.v. value,[3]; 200 mg kg-1,5%
same,kidney-plasma ratio at 8 h,[3]; 200 mg kg-1 i.p.,2 000%
same,kidney-plasma ratio relative to the lower dose of 50 mg kg-1,[3]; 200 mg kg-1 i.p.,2-3 times
same,"kidney-plasma ratio, initial",[3]; 200 mg kg-1 i.p.,20%
same,kidney AUC0-8h,[3]; 200 mg kg-1 i.v.,9660 µM·h
same,kidney-plasma ratio after 8 h,[3]; 200 mg kg-1 i.v.,100 000%
same,"kidney-plasma ratio, initial (measured at 5 min)",[3]; 200 mg kg-1 i.v.,> 100%
same,peak kidney drug level,[3]; 200 mg kg-1 i.v.,3.62 mM
same,peak kidney drug level versus lower dose,[3]; 200 mg kg-1 i.v. compared with 50 mg kg-1 i.v.,~12 fold
same,Kp at 4 h,"[3]; female, DBA-2, mouse, kidney, ip, 50 mg kg-1, 50 mg kg-1 i.p., Discussion, read-out: kidney-plasma ratio, steady-state equilibrium at 4 h",2 to 4
same,Kp at 1 h,"[3]; female, DBA-2, mouse, kidney, ip, 50 mg kg-1, 50 mg kg-1 i.p., read-out: kidney-plasma ratio after 1 h",1
same,Kp,"[3]; female, DBA-2, mouse, kidney, ip, 50 mg kg-1, 50 mg kg-1 i.p., read-out: kidney-plasma ratio, steady-state",1 to 3
same,Kp at 30 min,"[3]; female, DBA-2, mouse, kidney, iv, 50 mg kg-1, 50 mg kg-1 i.v., read-out: kidney-plasma ratio at 30 min",10
same,Kp at 2 h,"[3]; female, DBA-2, mouse, kidney, iv, 50 mg kg-1, 50 mg kg-1 i.v., read-out: kidney-plasma ratio, equilibrium at 2 h",2 to 3
same,Kp,"[3]; female, DBA-2, mouse, kidney, iv, 50 mg kg-1, 50 mg kg-1 i.v., read-out: kidney-plasma ratio, initial",0.35
same,Kp,"[3]; female, DBA-2, mouse, kidney, iv, 200 mg kg-1, 200 mg kg-1 i.v., read-out: kidney concentration relative to plasma, plateau",400 to 600
same,Kp at 5 min,"[3]; female, DBA-2, mouse, kidney, iv, 200 mg kg-1, 200 mg kg-1 i.v., read-out: kidney-plasma ratio, initial (measured at 5 min)",1
same,Kp,"[3]; female, DBA-2, mouse, kidney/plasma, ip, 200 mg kg-1, 200 mg kg-1 i.p., read-out: kidney-plasma ratio, increased steadily to",10 to 20
same,Kp,"[3]; female, DBA-2, mouse, kidney/plasma, ip, 200 mg kg-1, 200 mg kg-1 i.p., read-out: kidney-plasma ratio, initial",0.23
same,Cmax,[3]; [10],31500 ng/g and 59.1 µM
same,Tmax,[3]; [10],10 min
same,AUC(0-t),[3]; [10],47.5 µM·h
same,Cmax,[3]; [11],96400 ng/g and 181 µM
same,Tmax,[3]; [11],30 min
same,AUC(0-t),[3]; [11],179 µM·h
same,Cmax,[3]; [12],163000 ng/g and 305 µM
same,Tmax,[3]; [12],10 min
same,AUC(0-t),[3]; [12],240 µM·h
same,Cmax,[3]; [13],1.9e+06 ng/g and 3.62 mM
same,Tmax,[3]; [13],30 min
same,AUC(0-t),[3]; [13],9660 µM·h
same,peak plasma drug concentration in man as % of that after 200 mg kg-1 i.v. in mouse,[4],< 1%

# Source: publication PMC2063203, “The renal effects of the water-soluble, non-folylpolyglutamate synthetase-dependent thymidylate synthase inhibitor ZD9331 in mice” (British Journal of Cancer, 1998)
